Assay results from ChEMBL document CHEMBL4428031, “Verbascoside Inhibits Promastigote Growth and Arginase Activity of Leishmania amazonensis” (J Nat Prod, 2016).
The source made the active and inactive calls. No cut-off for these calls is given here.

Assays:
Arginase = Arginase (Leishmania amazonensis, UniProt O96394); test: Competitive inhibition of Leishmania amazonensis arginase assessed as inhibition constant for enzyme-inhibitor complex using L-arginine as substrate incubated for 15 mins by Dixon plot analysis
Leishmania amazonensis [1] = test: Antileishmanial activity against Leishmania amazonensis MHOM/BR/1973/M2269 promastigotes assessed as reduction in cell viability incubated up to 72 hrs by trypan blue dye based Neubauer chamber method; format: functional, organism-based; details: MHOM/BR/1973/M2269, 72 h
Leishmania amazonensis [2] = test: Antileishmanial activity against Leishmania amazonensis MHOM/BR/1973/M2269 promastigotes assessed as reduction in cell viability at 100 uM after 72 hrs by trypan blue dye based Neubauer chamber method; format: functional, organism-based
Leishmania donovani = test: Antileishmanial activity against Leishmania donovani axenic amastigotes after 72 hrs by alamar blue assay; format: functional, organism-based

## C[C@@H]1O[C@@H](O[C@@H]2[C@@H](O)[C@H](OCCc3ccc(O)c(O)c3)O[C@H](CO)[C@H]2OC(=O)/C=C/c2ccc(O)c(O)c2)[C@H](O)[C@H](O)[C@H]1O [ACETOSIDE]
Arginase
  Ki: 700 nM
Leishmania amazonensis [1]
  EC50: 19 µM
Leishmania amazonensis [2]
  Activity: Active
Leishmania donovani
  EC50: 14 µM
